In patent US20210062177A1, “Alginate Lyase” (Ocean University of China, priority 2019, published 2021):
Where two headings read alike, the source gives them in different places.

Assays:
ScCD6 = assay: Effects of metal ions and chemical reagents on ScCD6 enzyme activity; type: biochemical, Streptomyces coelicolor A3(2); settings: ScCD6 activity with metal ion/chemical reagent; for Relative enzyme activity %: control = 100.00
Method: (§1) Using 0.3% (w/v) sodium alginate as the substrate, in a 200 μL reaction system, after reaction for 20 min and boiling 2 min for inactivating, DNS method was used to determine the content of reducing sugar in the product to characterize the enzyme activity.
(§2) To determine the temperature stability, ScCD6 was incubated at 30° C., 40° C., 50° C. and 60° C., and its residual enzyme activity was determined by sampling at different times. When determining the stabilities of the enzyme under different pH, the enzyme was stored in buffer solution with pH 7.0, 8.0, 9.0 and 10.0 at 4° C., and the residual enzyme activity was determined by sampling at different times. […] In order to investigate the substrate specificity of ScCD6, sodium alginate, poly M and poly G were used as substrates and reacted at 40° C. for 20 min. The content of reducing sugar was determined by DNS method.

[1] = Product analysis of polysaccharide degradation by ScCD6 (HPLC); type: biochemical
Method: Further, the concentration of substrate (sodium alginate, poly M, poly G) in the reaction can be 0.3% (w/v). An amount of added enzyme can be 0.6 U. A reaction can be carried out at 30° C., pH 7.0 for 12 hours. The obtained products can be used for HPLC tests.
Using 0.3% (w/v) sodium alginate, poly M and poly G substrates, in a 200 μL reaction system, 0.6 U alginate lyase ScCD6 was added and reacted at 30° C. and pH 7.0 for 12 hours. The reaction product was boiled for 10 min and centrifuged at 10,000 rpm for 10 min to remove the proteins and other impurities in the system. The supernatant was collected and passed through a 0.22 μm filter membrane for HPLC test. The HPLC conditions were as follows: Superdex™ 30 Increase 30/100 Gel column, 0.2 M NH4HCO3 as mobile phase, flow rate of 0.4 mL/min, room temperature (˜25° C.), loading sample volume of 100 μL, UV detection at 235 nm.

[2] = Method: as §1, §2
[3] = Substrate specificity of ScCD6 (DNS method); type: biochemical; settings: sodium alginate, poly M, poly G; 40° C. for 20 min
Method: as §2

[4] = ScCD6 enzyme activity, reducing sugar by DNS method (optimum temperature and pH); type: biochemical
Method: as §1, §2

| Molecule | effect on the enzyme activity (ScCD6) | Relative enzyme activity % (ScCD6) [%] | also measured |
| --- | --- | --- | --- |
| [Ni+2] [Ni^2+] | inhibit the enzyme activity | 85.86 |  |
| [K+] [K^+] | little effects on the enzyme activity | 98.28 |  |
| [Fe+3] [Fe^3+] | promote the enzyme activity | 110.41 |  |
| CCCCCCCCCCCCOS(=O)(=O)[O-].[Na+] [SDS] | inhibit the enzyme activity | 92.02 |  |
| [Mn+2] [Mn^2+] | promote the enzyme activity | 110.91 |  |
| [Mg+2] [Mg^2+] | inhibit the enzyme activity | 91.64 |  |
| [Ca+2] [Ca^2+] | little effects on the enzyme activity | 101.76 |  |
| [Zn+2] [Zn^2+] | promote the enzyme activity | 109.04 |  |
| [Na+] [Na^+] | little effects on the enzyme activity | 101.15 |  |
| [Cu+2] [Cu^2+] | inhibit the enzyme activity | 86.33 |  |
| O=C([O-])CN(CCN(CC(=O)[O-])CC(=O)O)CC(=O)O.[Na+].[Na+] [Na2EDTA] | lose the enzyme activity | 1.03 |  |
| [Co+2] [Co^2+] | promote the enzyme activity | 106.89 |  |
| [Ba+2] [Ba^2+] | promote the enzyme activity | 108.96 |  |
| ScCD6: novel PL-6 family alginate lyase from Streptomyces coelicolor A3(2), 493 amino acids, SEQ ID NO: 1 (protein, Streptomyces coelicolor) MNRPRLSTYAAITVAAITIAALTTAASALASTGDTSSRTPSGNSTPQANATIVNVSSSTQLTTAMANAVAGQTIVLANGSYSIGKLNAKNGTSSAPITIMAAQQGKAIITGGQLEVLSSSYVTFSGLKWTNSNTLKITSSHHIRLTRNHFRLTESSSLKWIIIQGANSHHNRIDHNLFEEKHQLGNFITIDGSSTQQSQYDLIDYNHFRNIGPRATNEMEAIRVGWSAISKSDGFTTVENNLFENCDGDPEIVSVKSNANTVRYNTFRTSQGSVSLRHGNRSQVHGNFFFGGGKTGTGGVRVYGQDHKIYNNHFEGLTGTGYDAALQLDGGDVDTSGALSSHWRVYRATAVHNTFVNNVSNIEIGANYSLAPVDSLVADNIVVGSSGKLFNELKMPKNMTYAGNIGWPTGSATIGITTGVRTVNPLLAKQGEVYRLGTGSPAVNTASGSYSFLADDMDGQSRSGTADVGADELSTGTVVHKPLNSADVGISAP |  |  | degradation of polysaccharides ([1]; 0.3% (w/v) sodium alginate, poly M, poly G, 0.6 U, 30° C., pH 7.0, 12 hours, HPLC): could degrade all three kinds of polysaccharides; mode of digestion ([1]; HPLC product analysis): endo-type alginate lyase; polymerization degree of unsaturated oligosaccharide products ([1]; degradation of sodium alginate): 2-8; unsaturated disaccharides as share of the total unsaturated oligosaccharide products ([1]; degradation of sodium alginate): about 70%; enzyme activity retained ([2]; 4° C. for 4 days at pH 7.0-10.0): 80%; enzyme activity retained ([2]; 30° C. for 24 hours): 80%; substrate specificity [3]: poly M specific alginate lyase; optimum pH ([4]; 50° C., pH 3.0-10.0, 0.3% (w/v) sodium alginate): 9.0; optimum reaction temperature ([4]; pH 7.0, temperature range of 30-100° C., 0.3% (w/v) sodium alginate): 50 °C |
